The record followed here is patent US20240368121A1, “ESTROGEN RECEPTOR DEGRADERS, PHARMACEUTICAL COMPOSITIONS THEREOF, AND THEIR THERAPEUTIC APPLICATIONS” (BioTheryX, Inc., priority 2021, published 2024).

Common to all, as to assay type: cell-based
For one test, the target named is T1, ERα (Homo sapiens, UniProt P03372).
T1 construct: degrading an ERα in MCF-7 cells via a western blot; endogenous in cells; host or cells: MCF-7
T1 sequence (P03372 1-595): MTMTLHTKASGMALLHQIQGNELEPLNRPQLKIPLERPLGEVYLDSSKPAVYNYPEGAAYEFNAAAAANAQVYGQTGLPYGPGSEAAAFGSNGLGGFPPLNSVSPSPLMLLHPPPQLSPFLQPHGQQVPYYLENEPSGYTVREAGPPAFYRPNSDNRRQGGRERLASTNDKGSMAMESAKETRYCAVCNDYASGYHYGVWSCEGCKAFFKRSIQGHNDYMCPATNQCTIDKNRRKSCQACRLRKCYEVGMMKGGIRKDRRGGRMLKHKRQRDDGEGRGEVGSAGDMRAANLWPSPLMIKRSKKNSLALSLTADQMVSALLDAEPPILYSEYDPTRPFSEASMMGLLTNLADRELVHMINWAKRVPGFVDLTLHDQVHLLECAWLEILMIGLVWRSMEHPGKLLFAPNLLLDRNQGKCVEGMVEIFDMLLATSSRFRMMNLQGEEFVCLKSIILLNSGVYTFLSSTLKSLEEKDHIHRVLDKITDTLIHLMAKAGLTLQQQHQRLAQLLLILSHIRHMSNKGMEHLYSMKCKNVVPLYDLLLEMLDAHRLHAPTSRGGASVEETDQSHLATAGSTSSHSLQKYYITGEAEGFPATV
Description: Protein degradation assay: ERα in MCF-7 cells via western blot. The note with it: 6 h; for ERα Protein Degradation 1 nM: 1 nM compound; for ERα Protein Degradation 10 nM: 10 nM compound; for ERα Protein Degradation 100 nM: 100 nM compound. The essentials: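 MCF-7 cells in MEM/10% FBS with insulin, seeded 300,000/well, treated 6 h at set concentrations (e.g., 1 nM–1 μM). Whole-cell lysates immunoblotted for ERα with GAPDH loading control, chemiluminescent detection; percentage degradation reported in binned categories (≥50%, 25–50%, 10–25%, <10%).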
A general note: In western blotting, separated proteins are transferred to a membrane and probed.

For a further test, the system named is MCF7 cells. The experiment in a line: Cell viability assay ([…]-GLO, 6-day treatment). The note with it: Homo sapiens, MCF7, 144 h; MCF-7 cells, 6 days, CTG; read-out: Inhibition of Cancerous Cells IC50 MCF-7. The essentials:
(§1)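 MCF7 (MEM) and T47D (RPMI with insulin), both with 10% FBS, at 1,000 cells/well, treated with a 10-point compound dose series for 6 days, with medium and compound refreshed once. Viability read by CellTiter-Glo luminescence.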

In the next test the test system is T47D cells. Description: Cell viability assay ([…]-GLO, 6-day treatment). The note with it: Homo sapiens, 144 h, 6 days, CTG, read-out: Inhibition of Cancerous Cells IC50 T47D. The essentials: as §1

By IC50 is commonly meant the point on the concentration scale where inhibition reaches its midpoint. Turning to `O=C1CCC(Nc2cccc(NC3CCN(CC4CCN(c5ccc([C@@H]6c7ccc(O)cc7CC[C@@H]6c6ccccc6)cc5)CC4)CC3)c2)C(=O)N1` (stereo partly drawn) [Compound B14, 3-((3-((1-((1-(4-((1R,2S)-6-hydroxy-2-phenyl-1,2,3,4-tetrahydronaphthalen-1-yl)phenyl)piperidin-4-yl)methyl)piperidin-4-yl)amino)phenyl)amino)piperidine-2,6-dione], at ERα, the “ERα Protein Degradation 1 nM” value was “D (a percentage degradation value of less than 10%)”, the “ERα Protein Degradation 10 nM” value is listed as “D (a percentage degradation value of less than 10%)” and the “ERα Protein Degradation 100 nM” value is reported as “D (a percentage degradation value of less than 10%)”. The IC50 in the test on MCF7 cells was found to be 0.73 nM. The IC50 in the test on T47D cells was determined as 1.2 nM.

As to `O=C1CCC(N2Cc3cc(N4CCN(CC5CCN(c6ccc(C7c8ccc(O)cc8CC[C@@H]7c7ccccc7)cc6)CC5)CC4)ccc3C2=O)C(=O)N1` (stereo in doubt) [Compound A16, (S)-3-(5-(4-((1-(4-((1R,2S)-6-Hydroxy-2-phenyl-1,2,3,4-tetrahydronaphthalen-1-yl)phenyl)piperidin-4-yl)methyl)piperazin-1-yl)-1-oxoisoindolin-2-yl)piperidine-2,6-dione], on ERα, the “ERα Protein Degradation 1 nM” value is “B (a percentage degradation value of less than 50% and no less than 25%)”; the “ERα Protein Degradation 10 nM” value is listed as “A (a percentage degradation value of no less than 50%)”; the “ERα Protein Degradation 100 nM” value is “A (a percentage degradation value of no less than 50%)”. For the same molecule, the IC50 with MCF7 cells was 0.68 nM. Also, in the test with T47D cells, the IC50 turned out to be 0.22 nM.

Turning to `Cc1c(-c2ccc(O)cc2)n(Cc2ccc(OCCCCN3CCN(c4ccc5c(c4)CN(C4CCC(=O)NC4=O)C5=O)CC3)cc2)c2ccc(O)cc12` (centres unmarked) [Compound E2, 3-(5-(4-(4-(4-((5-Hydroxy-2-(4-hydroxyphenyl)-3-methyl-1H-indol-1-yl)methyl)-phenoxy)butyl)piperazin-1-yl)-1-oxoisoindolin-2-yl)piperidine-2,6-dione], at ERα, the “ERα Protein Degradation 1 nM” value is given as “D (a percentage degradation value of less than 10%)”, the “ERα Protein Degradation 10 nM” value is “D (a percentage degradation value of less than 10%)” and the “ERα Protein Degradation 100 nM” value is “D (a percentage degradation value of less than 10%)”. In addition, the IC50 in the test on MCF7 cells turned out to be 0.45 nM. Moreover, in the test with T47D cells, the IC50 was 0.25 nM.

In the case of `O=C1CCC(N2Cc3c(csc3C3CCN(CC4CCN(c5ccc([C@@H]6c7ccc(O)cc7CC[C@@H]6c6ccccc6)cc5)CC4)CC3)C2=O)C(=O)N1` (stereo partly drawn) [Compound A7, 3-(1-(1-((1-(4-((1R,2S)-6-hydroxy-2-phenyl-1,2,3,4-tetrahydronaphthalen-1-yl)phenyl)piperidin-4-yl)methyl)piperidin-4-yl)-4-oxo-4H-thieno[3,4-c]pyrrol-5(6H)-yl)-piperidine-2,6-dione], at ERα, the “ERα Protein Degradation 1 nM” value is reported as “D (a percentage degradation value of less than 10%)”, the “ERα Protein Degradation 10 nM” value is “D (a percentage degradation value of less than 10%)” and the “ERα Protein Degradation 100 nM” value was “D (a percentage degradation value of less than 10%)”. Moreover, the IC50 in the test with MCF7 cells stood at 145 nM. Further, the IC50 in the test on T47D cells came to 0.18 nM.

Turning to `O=C1CCC(N2Cc3cc(C4CCN(CC5CCN(c6ccc([C@@H]7c8ccc(O)cc8CC[C@@H]7c7ccccc7)cc6)CC5)CC4)c(F)cc3C2=O)C(=O)N1` (stereo partly drawn) [Compound A6, 3-(6-fluoro-5-(1-((1-(4-((1R,2S)-6-hydroxy-2-phenyl-1,2,3,4-tetrahydro-naphthalen-1-yl)phenyl)piperidin-4-yl)methyl)piperidin-4-yl)-1-oxoisoindolin-2-yl)piperidine-2,6-dione], at ERα, the “ERα Protein Degradation 1 nM” value was “B (a percentage degradation value of less than 50% and no less than 25%)”; the “ERα Protein Degradation 10 nM” value is “B (a percentage degradation value of less than 50% and no less than 25%)”; the “ERα Protein Degradation 100 nM” value was “D (a percentage degradation value of less than 10%)”. In addition, the IC50 in the test on MCF7 cells came out at 4 nM. The IC50 in the test on T47D cells came out at 0.47 nM.

Consider `O=C1CCC(N2Cc3c(cc(F)cc3C3CCN(CCCCCCOc4ccc([C@@H]5c6ccc(O)cc6CC[C@@H]5c5ccccc5)cc4)CC3)C2=O)C(=O)N1` (stereo partly drawn) [Compound A2, 3-(6-Fluoro-4-(1-(6-(4-((1R,2S)-6-hydroxy-2-phenyl-1,2,3,4-tetrahydro-naphthalen-1-yl)phenoxy)hexyl)piperidin-4-yl)-1-oxoisoindolin-2-yl)piperidine-2,6-dione], for which, at ERα, the “ERα Protein Degradation 1 nM” value is “D (a percentage degradation value of less than 10%)”, the “ERα Protein Degradation 10 nM” value is reported as “D (a percentage degradation value of less than 10%)” and the “ERα Protein Degradation 100 nM” value is “D (a percentage degradation value of less than 10%)”. In addition, in the test on MCF7 cells, the IC50 turned out to be 0.72 nM. For the same molecule, the IC50 in the test on T47D cells is 0.61 nM.

As for `Cc1c(-c2ccc(O)cc2)n(Cc2ccc(OCCCCN3CCN(C(=O)COc4ccc5c(c4)CN(C4CCC(=O)NC4=O)C5=O)CC3)cc2)c2ccc(O)cc12` (centres unmarked) [Compound E3, 3-(5-(2-(4-(4-(4-((5-Hydroxy-2-(4-hydroxyphenyl)-3-methyl-1H-indol-1-yl)-methyl)phenoxy)butyl)piperazin-1-yl)-2-oxoethoxy)-1-oxoisoindolin-2-yl)piperidine-2,6-dione], at ERα, the “ERα Protein Degradation 1 nM” value is “B (a percentage degradation value of less than 50% and no less than 25%)”; the “ERα Protein Degradation 10 nM” value was “B (a percentage degradation value of less than 50% and no less than 25%)”; the “ERα Protein Degradation 100 nM” value is “B (a percentage degradation value of less than 50% and no less than 25%)”. Further, the IC50 with MCF7 cells amounted to 4.5 nM. In addition, the IC50 with T47D cells was determined as 3.2 nM.

As for `O=C1CCC(c2ccc(OCC(=O)N3CCN(CCCCOc4ccc([C@@H]5c6ccc(O)cc6CC[C@@H]5c5ccccc5)cc4)CC3)cc2)C(=O)N1` (stereo partly drawn) [Compound B6, 3-(4-(2-(4-(4-(4-((1R,2S)-6-hydroxy-2-phenyl-1,2,3,4-tetrahydronaphthalen-1-yl)phenoxy)butyl)piperazin-1-yl)-2-oxoethoxy)phenyl)piperidine-2,6-dione], on ERα, the “ERα Protein Degradation 1 nM” value was “C (a percentage degradation value of less than 25% and no less than 10%)”; the “ERα Protein Degradation 10 nM” value was “C (a percentage degradation value of less than 25% and no less than 10%)”; the “ERα Protein Degradation 100 nM” value is “C (a percentage degradation value of less than 25% and no less than 10%)”. Besides, the IC50 with MCF7 cells amounted to 0.22 nM. In addition, the IC50 with T47D cells amounted to 0.18 nM.

With `O=C1CCC(Nc2cccc(OCC(=O)N3CCN(CC4CCN(c5ccc([C@@H]6c7ccc(O)cc7CC[C@@H]6c6ccccc6)cc5)CC4)CC3)c2)C(=O)N1` (stereo partly drawn) [Compound B16, 3-((3-(2-(4-((1-(4-((1R,2S)-6-hydroxy-2-phenyl-1,2,3,4-tetrahydronaphthalen-1-yl)phenyl)piperidin-4-yl)methyl)piperazin-1-yl)-2-oxoethoxy)phenyl)amino)piperidine-2,6-dione], on ERα, the “ERα Protein Degradation 1 nM” value is “C (a percentage degradation value of less than 25% and no less than 10%)”; the “ERα Protein Degradation 10 nM” value is “C (a percentage degradation value of less than 25% and no less than 10%)”; the “ERα Protein Degradation 100 nM” value was “C (a percentage degradation value of less than 25% and no less than 10%)”. Besides, the IC50 with MCF7 cells is 5 nM. Also, the IC50 in the test with T47D cells came out at 2.6 nM.

Take `O=C1CCC(N2Cc3cc(C4CCN(CCCCOc5ccc([C@@H]6c7ccc(O)cc7CC[C@@H]6c6ccccc6)cc5)CC4)c(F)cc3C2=O)C(=O)N1` (stereo partly drawn) [Compound A4, 3-(6-Fluoro-5-(1-(4-(4-((1R,2S)-6-hydroxy-2-phenyl-1,2,3,4-tetrahydro-naphthalen-1-yl)phenoxy)butyl)piperidin-4-yl)-1-oxoisoindolin-2-yl)piperidine-2,6-dione]: at ERα, the “ERα Protein Degradation 1 nM” value is on record as “D (a percentage degradation value of less than 10%)”, the “ERα Protein Degradation 10 nM” value is reported as “D (a percentage degradation value of less than 10%)” and the “ERα Protein Degradation 100 nM” value was “D (a percentage degradation value of less than 10%)”. Besides, in the test with MCF7 cells, the IC50 was 0.06 nM. In the test with T47D cells, the IC50 is 0.08 nM.
